The source of these data is patent US20180044343A1, “BICYCLIC IMIDAZOLO DERIVATIVE” (Sumitomo Dainippon Pharma Co., Ltd., priority 2015, published 2018).

Molecules are shown by their SMILES.

Data set [1] addresses T1, PDE1B (Homo sapiens, UniProt Q01064). The data set is described as follows: In vitro HTRF PDE1 inhibition assay (PDE1B). The data set is classed as biochemical. The settings on record: in vitro PDE1B HTRF Assay; read-out: IC50. For orientation: TR-FRET usually uses a lanthanide donor and a delayed reading to cut background.
The target of data set [2] is T2, PDE1A3 (Homo sapiens, UniProt P54750). Kind of data set: In vitro HTRF PDE1 inhibition assay (PDE1A3). It is filed as biochemical. The settings on record: PDE1A3, 100 nM cyclic GMP. The text has this: (§1) An exemplary procedure for the in vitro Homogenous Time Resolved Fluorescence assay, which can be used to determine the inhibitory action of compounds of the present invention toward PDE1 or its isoforms, follows.
(§2) The HTRF PDE1 assay utilized the HTRF (Homogenous Time Resolved Fluorescence) technology, which is based on the competition between unlabeled cyclic nucleotide and cyclic nucleotide labeled with XL665 for the binding to cyclic nucleotide-specific antibody labeled with cryptate. The HTRF signal is thus inversely proportional to the concentration of cyclic nucleotide being measured. Since phosphodiesterases break down cyclic nucleotides, the HTRF signal was used to determine PDE activity.
(§3) The Cisbio cGMP HTRF assay kit (Cat no: 62GM2PEC) was utilized. Cyclic GMP was diluted to 200 nM in HTRF assay buffer (1 mM CaCl2, 10 mM MgCl2, 10 mM Tris-HCl, 0.1% BSA, pH 7.4). 10 μl of compound or DMSO was diluted in 200 nM cyclic GMP solution and added to wells of a 96 well white plate to give 100 nM cyclic GMP in 1% DMSO final concentration. PDE (1A3, 1B or 1C) was diluted to 2× working concentration in HTRF assay buffer with 2 μg/ml Calmodulin, and 10 μl was added to initiate the reaction. The plate was then incubated for 45 minutes at 27° C. d2-Labelled cyclic GMP and anti-cGMP cryptate were diluted in 50 mM phosphate buffer, 0.8 M KF, 1% Triton X100, 0.2% BSA, pH 7.0. Following incubation 10 μl d2-cGMP, then 10 μl anti cGMP cryptate were added to each well and the plate was incubated for 60 minutes at room temperature. The plate was then read on Perkin Elmer EnVision at 2 different FRET readings ex/em 340 nm/665 nm and 340 nm/615 nm.
(§4) Compounds having an IC50 of <1 μM are denoted as +++. Compounds having an IC50 of 1-10 μM are denoted as ++. Compounds having an IC50 of 10-100 μM are denoted as +.

In data set [3] the target is T3, PDE1C (Homo sapiens, UniProt Q14123). Kind of data set: In vitro HTRF PDE1 inhibition assay (PDE1C). The data set is classed as biochemical. As to conditions: 100 nM cyclic GMP.
Description: as §1, §2, §3, §4

Data set [4] addresses T1, PDE1B. Kind of data set: In vitro SPA PDE1 inhibition assay (PDE1B). It is filed as biochemical. As to conditions: [3H]-cGMP 100 nM. The protocol:
(§5) The commercially available Scintillation Proximity Assay (SPA) system (Perkinelmer) was used for PDE1 inhibition assays. SPA Yttrium Silicate beads preferentially binds to non-cyclic GMP compared to cyclic GMP (cGMP) in the presence of zinc sulphate, which enables to measure the amount of enzyme reaction product ([^3H]-GMP) by scintillation counting.
(§6) For PDE1 inhibition assay, 10 μl of the test compounds in 5% dimethyl sulfoxide diluted in SPA assay buffer (1 mM CaCl2, 10 mM MgSO4, 10 mM Tris-HCl, pH 7.4) were placed in a 96-well white microtiter plate, and 20 μl of [^3H]-cGMP solution (100 nM final concentration, Perkinelmer) in SPA assay buffer was added. Assays were initiated by adding 20 μl of PDE (1A3, 1B or 1C) enzyme solution including calmodulin (final concentration 1 μg/ml). After 30 min incubation at 27° C., the reaction was stopped by the addition of 50 μl of a suspension of 10 mg/ml SPA beads in 18 mM ZnSO4. The microtiter plates were settled for 60 min, and then were measured in a TopCount NXT scintillation counter (PerkinElmer). IC50 values were determined from sigmoidal curves by plotting the percentage of PDE activity versus log compound concentration. IC50 was defined as the concentration of the test compounds required to inhibit the cyclic nucleotide hydrolyzing activities of tested PDEs by 50%.

Data set [5] deals with T2, PDE1A3. The data set is described as follows: In vitro SPA PDE1 inhibition assay (PDE1A3). As to conditions: PDE1A3, [3H]-cGMP 100 nM. The data set is classed as biochemical. The protocol:
as §5, §6

Data set [6] has as its target T3, PDE1C. Kind of data set: In vitro SPA PDE1 inhibition assay (PDE1C). The data set is classed as biochemical. The settings on record: [3H]-cGMP 100 nM. How it is done:
as §5, §6

Data set [7] in a line: Evaluation of bioavailability, PK test in rats. The data set is classed as in vivo. The settings on record: rat; 7 week-old SD rats, intravenous vs oral administration, plasma LC-MS. The protocol: This test can be used to assess pharmacokinetics of the compounds of the present invention. Each compound of the invention was administered to 7 week-old SD rats intravenously with a solution in saline: 0.1N HCl=9:1 or orally with a 0.5% suspension in methyl cellulose, and each blood sample was collected at an appropriate interval as follows:
5, 15, and 30 minutes, and 1, 2, 4, 6, and 24 hours after intravenous administration
15 and 30 minutes, and 1, 2, 4, 6, and 24 hours after oral administration
The plasma was obtained from each blood, and the concentration of each compound in the plasma was measured with an LC-MS to calculate each pharmacokinetic parameter based on the concentration change.

Data set [8] can be described thus: Test for drug transportation to brain in rats. It is filed as in vivo. The settings on record: rat; SD rats, oral, one hour after administration; non-binding drug concentration ratio between brain and plasma. An excerpt:
Test for Drug Transportation to Brain in Rats
This test can be used to assess transportation of the compounds of the present invention to the brain. Each compound of the invention was orally administered to 7 week-old SD rats with a 0.5% suspension in methyl cellulose, and each plasma and brain were collected one hour after administration to measure the concentration of each compound in the plasma and the brain with an LC-MS.
Each protein binding ratio of the compounds in the plasma and the brain was measured by the equilibrium dialysis method.
The obtained concentrations and protein binding ratios of the compounds in the plasma and the brain can be applied to the following equation to calculate Kp, uu, brain (i.e., non-binding drug concentration ratio between brain and plasma).
Kp, uu, brain=[Compound concentration in brain×(100−Protein binding ratio in brain (%))/100]/[Compound concentration in plasma×(100−Protein binding ratio in plasma (%))/100]

Data set [9] has as its system cognitive dysfunction in PCP-treated rats. The data set is described as follows: Novel object recognition test in rats repeatedly treated with phencyclidine (PCP). The data set is classed as in vivo. The settings on record: rats given PCP 3 mg/kg i.p. twice a day for 10 days; compound 1 or 3 mg/kg orally 60 minutes before test; compared to PCP+vehicle group. The protocol:
Since an N-Methyl-D-aspartate receptor antagonist phencyclidine (PCP) has been known to cause schizophrenia-like symptoms including cognitive dysfunction in humans, PCP-treated animals have been widely used as a schizophrenic animal model. Using rats to which PCP was repeatedly administered as a schizophrenic animal model, the improvement in cognitive dysfunction with the compounds of the invention was evaluated in the novel object recognition test. Rats were habituated to the test environment which is a box (50 cm×50 cm×35 cm) with no object inside for 1 hour per day for 3 days. On the test day, rats were again put into the test box with no object inside to habituate themselves for three minutes. The rats were then put into the test box with two identical objects inside and were made to explore inside for three minutes for a training trial. After one minute, they were put into the test box with one of the objects (i.e., the familiar object) that was the same as used in the training trial and another object (i.e., a novel object) inside and were made to explore inside for three minutes for a test trial. Cognitive function was evaluated on the basis of preference for the novel object in the test trial utilizing rats' habit of exploring a novel object longer than a familiar object. Discrimination Index was calculated from the following equation as an index for preference of a novel object.
Discrimination Index=(Time to explore novel object−Time to explore familiar object)/(Time to explore novel object+Time to explore familiar object)

One may read the IC50 as the concentration at which inhibition is half-maximal. By bioavailability is commonly meant dose-corrected exposure relative to a reference, in per cent. Read a low bioavailability as little systemic uptake.

T1 sequence (Q01064 whole entry, canonical isoform): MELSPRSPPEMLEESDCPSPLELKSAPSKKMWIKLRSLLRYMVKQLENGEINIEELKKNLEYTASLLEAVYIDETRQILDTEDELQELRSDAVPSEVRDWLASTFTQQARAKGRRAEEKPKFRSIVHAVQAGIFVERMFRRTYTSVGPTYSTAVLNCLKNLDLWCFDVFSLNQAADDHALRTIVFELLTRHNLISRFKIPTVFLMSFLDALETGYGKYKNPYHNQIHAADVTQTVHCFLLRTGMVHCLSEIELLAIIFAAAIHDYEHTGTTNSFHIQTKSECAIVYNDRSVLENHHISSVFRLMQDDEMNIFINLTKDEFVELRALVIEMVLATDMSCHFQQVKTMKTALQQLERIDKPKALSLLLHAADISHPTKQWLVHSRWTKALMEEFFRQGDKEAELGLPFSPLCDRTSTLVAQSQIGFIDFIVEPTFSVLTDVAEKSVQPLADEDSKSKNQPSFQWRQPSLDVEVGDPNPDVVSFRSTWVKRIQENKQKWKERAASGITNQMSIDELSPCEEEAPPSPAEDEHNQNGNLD

Regarding `CCn1c(OCC2CCC(F)(F)CC2)nn2c(C3CCOCC3)ncc2c1=O` [Example 1], the IC50 is less than 1000 nM at PDE1B [1]; less than 1 µM against PDE1A3 [2]; less than 1 µM on PDE1C [3]; 0.088 µM at PDE1B [4]; 0.22 µM on PDE1A3 [5]; 0.665 µM on PDE1C [6]. The compound further came in with a bioavailability in [7] of 23.3%. For the same compound, the Kp uu at 1 h in [8] was 0.69. The “Discrimination Index in novel object recognition test” value (“Discrimination Index” for short) in data set [9] was “significant increase”.

Turning to `COc1nn2c(C3CCOCC3)ncc2c(=O)n1Cc1ccc(Cl)cc1` [Example 109, 3-(4-chlorobenzyl)-2-methoxy-7-(tetrahydro-2H-pyran-4-yl)imidazo[5,1-f][1,2,4]triazin-4(3H)-one], the IC50 was less than 1000 nM on PDE1B [1]; less than 1 µM on PDE1A3 [2]; less than 1 µM on PDE1C [3]; 0.028 µM at PDE1B [4]; 0.023 µM on PDE1A3 [5]; 0.057 µM at PDE1C [6]. Also, in data set [8], the Kp uu at 1 h came out at 1.02.

`COc1nn2c(C3CCOCC3)ncc2c(=O)n1CC1CCC(F)(F)CC1` [Example 115, 3-[(4,4-difluorocyclohexyl)methyl]-2-methoxy-7-(tetrahydro-2H-pyran-4-yl)imidazo[5,1-][1,2,4]triazin-4(3H)-one]: the IC50 at PDE1B [1] was less than 1000 nM; against PDE1A3 [2] it was less than 1 µM; on PDE1C [3], less than 1 µM; against PDE1B [4], 0.033 µM; on PDE1A3 [5], 0.034 µM; at PDE1C [6], 0.065 µM. For the same compound, the bioavailability in [7] was determined as 13.4%. Further, in [8], the Kp uu at 1 h was found to be 0.96. Moreover, in data set [9], the “Discrimination Index” value was “significant increase”.

Regarding `CC(C)c1ncc2c(=O)n(C)c(NCc3ccc(Cl)cn3)nn12` [Example 149, 2-{[(5-chloropyridin-2-yl)methyl]amino}-3-methyl-7-(propan-2-yl)imidazo[5,1-f][1,2,4]triazin-4(3H)-one], the half-maximal inhibitory concentration (IC50) was less than 1000 nM on PDE1B [1]; less than 1 µM on PDE1A3 [2]; less than 1 µM at PDE1C [3]; 0.051 µM against PDE1B [4]; 0.144 µM against PDE1A3 [5]; 0.425 µM at PDE1C [6]. The same compound displayed a bioavailability in data set [7] of 55.6%. Further, the Kp uu at 1 h in data set [8] came out at 0.3. Further, in data set [9], the “Discrimination Index” value is reported as “significant increase”.

For the compound `Cn1c(OC[C@H]2CC[C@H](C(F)(F)F)CC2)nn2c(C3CCOCC3)ncc2c1=O` [Example 245, 3-methyl-7-(tetrahydro-2H-pyran-4-yl)-2-{[trans-4-(trifluoromethyl)cyclohexyl]methoxy}-imidazo[5,1-][1,2,4]triazin-4(3H)-one], the IC50 on PDE1B [1] is less than 1000 nM; against PDE1A3 [2], less than 1 µM; on PDE1C [3], less than 1 µM; on PDE1B [4] it was 0.036 µM; at PDE1A3 [5], 0.113 µM; at PDE1C [6], 0.547 µM. The same compound showed a bioavailability in data set [7] of 30.4%. Moreover, in [8], the Kp uu at 1 h was determined as 0.72. Besides, the “Discrimination Index” value in [9] is “significant increase”.

As to `CCO[C@H]1CC[C@H](COc2nn3c(C4CCOCC4)ncc3c(=O)n2C)CC1` [Example 246, 2-[(trans-4-ethoxycyclohexyl)methoxy]-3-methyl-7-(tetrahydro-2H-pyran-4-yl)imidazo[5,1-][1,2,4]triazin-4(3H)-one], the IC50 is less than 1000 nM at PDE1B [1]; less than 1 µM at PDE1A3 [2]; less than 1 µM against PDE1C [3]; 0.064 µM at PDE1B [4]; 0.289 µM against PDE1A3 [5]; 0.788 µM against PDE1C [6]. The bioavailability in data set [7] amounted to 51.6%. In data set [8], the Kp uu at 1 h amounted to 0.26.

With `CCOC[C@H]1CC[C@H](COc2nn3c(C4CCOCC4)ncc3c(=O)n2C)CC1` [Example 288, 2-{[trans-4-(ethoxymethyl)cyclohexyl]methoxy}-3-methyl-7-(tetrahydro-2H-pyran-4-yl)-imidazo[5,1-][1,2,4]triazin-4(3H)-one], the IC50 on PDE1B [1] is less than 1000 nM; against PDE1A3 [2], less than 1 µM; on PDE1C [3] it was less than 1 µM; on PDE1B [4], 0.023 µM; against PDE1A3 [5] it was 0.08 µM; at PDE1C [6], 0.276 µM. This compound also registered a bioavailability in data set [7] of 54.5%. Moreover, the Kp uu at 1 h in data set [8] is 0.61. Moreover, the “Discrimination Index” value in data set [9] is listed as “significant increase”.
